Measured values from paper PMC7179302, “Lead Optimization of Dehydroemetine for Repositioned Use in Malaria” (Antimicrobial Agents and Chemotherapy, 2020).
Where a name gives a salt, the structure may show the parent alone.

Experiments:
[1] = test system: female gametocytes in P. falciparum strain NF54; assay: Dual gamete formation assay, female gametocytes (Pfs25 expression); assay type: cell-based; settings: Plasmodium falciparum, 48 h incubation
Experimental: (§1) A bioassay was performed to assess the malaria transmission-blocking potential of compounds on P. falciparum strain NF54 by estimating their ability to prevent male mature gametocytes from progressing to male microgametes or/and to inhibit female gamete activation, as indicators of gametocyte functionality. The NF54 strain was selected for its increased ability to produce gametocytes under in vitro conditions ([45]). The activation of male gametocytes into mature microgametes is evaluated by the process of exflagellation (extrusion of rapidly waving flagellum-like microgametes from the infected erythrocyte). The activation of female gametocytes is evaluated based on the specific expression of the P. falciparum s25 (Pfs25) protein at the surface of the female activated gametes ([46]). […]
(§2) Asexual cultures of P. falciparum strain NF54 parasites were used to seed gametocyte cultures at 0.5% parasitemia, 4% hematocrit in a 50-ml total volume under 3% O2, 5% CO2, 92% N2 gas. […] Plates were analyzed to detect exflagellation centers. […] Then, plates were analyzed to detect female activated gametes. Activation of male gametes was detected based on light changes provoked by flagellar movements that caused movement of surrounding cells. A 10-frame video was taken and then analyzed to determine these changes in cell position based on changes in pixels. […]

[2] = test system: K1 strain P. falciparum, unsynchronized cultures; assay: IC50 speed assay (time course) using unsynchronized cultures; assay type: cell-based, Plasmodium falciparum; settings: for 24-h IC50 / Time by which the IC50 was reached: unsynchronized cultures; for 24-h IC50: 24 h exposure; for Time by which the IC50 was reached: IC50 speed assay
Experimental: Following drug efficacy experiments, 150-μl amounts from the control and drug-treated wells on a 96-well plate were transferred to microcentrifuge tubes, and samples were washed once with phosphate-buffered saline (PBS). The supernatant was removed, and samples were incubated in the dark at room temperature for 20 min following the addition of 1 ml of 5× SYBR green solution (prepared by adding 5 μl of 10,000× SYBR green to 10 ml PBS). After staining, the samples were centrifuged for 1 min at 14,000 rpm and the supernatant was discarded. Samples were resuspended in 250 μl of 0.37% formaldehyde fixation solution prepared by diluting 36.5% formaldehyde (Sigma, UK) with PBS to the specified final concentration. The samples were placed in the refrigerator and incubated at 4°C for 15 min. Subsequently, PBS was used to wash the samples 3 times, and finally, the samples were suspended in 1 ml PBS. Parasitemia was determined by measuring SYBR green fluorescence using the FITC channel of the BD FACSVerse flow cytometer system (blue laser; excitation laser line, 488 nm, with excitation maximum of 494 nm and emission maximum of […]) and cell size (forward scatter [FSC-A]). Fifty thousand events were recorded, in three replicates for each. Fluorescence events in drug-treated samples were compared with those in their infected and uninfected blood counterparts and gated accordingly to obtain the percentages of parasitemia.
The IC50 speed assay was used to determine the speeds of action of the emetine analogues. Unsynchronized cultures of K1 strain P. falciparum were used, and parasites were grown in the presence of (−)-R,S-dehydroemetine and (−)-S,S-dehydroisoemetine for three incubation periods of 24 h, 48 h, and 72 h. The assays were analyzed by determining SYBR green fluorescence as described above.
The results for the infected-blood controls were set at 100% for normalization, and percentages of parasitemia for drug-treated samples were calculated relative to the results for the infected controls. For IC50 values, GraphPad Prism 5.0 was used to further process the data. IC50 values were calculated using nonlinear regression (GraphPad Prism 5.0) by using log-transformed drug concentrations plotted against the dose response. The log(inhibitor) versus normalized response-variable slope option was used for IC50 calculation. Emetine dihydrochloride was used as a control drug to validate the method.

[3] = test system: Plasmodium falciparum rings and trophozoites/schizonts; assay: Stage-specific profiling using synchronized cultures; assay type: cell-based; settings: highest concentration tested, 24 h exposure, read 24 h after postexposure wash
Experimental: Parasite cultures with ≥80% trophozoites and ≥80% rings were obtained by synchronization with 5% sorbitol ([42]). The cultures were synchronized twice, at 0 h and 31 h, to obtain young rings which were up to 3 h old. To obtain early schizont stages, the cultures were synchronized twice, with the second synchronization being 6 to 8 h after the first. […] The plates were washed 4 times after the incubation in order to dilute the drug concentration by >1,000-fold. The plates were incubated for another 24 h at 37°C, following which SYBR green staining was used to read the plates as described above.

[4] = test system: male gametocytes in P. falciparum strain NF54; assay: Dual gamete formation assay, male gametocytes (exflagellation); assay type: cell-based; settings: Plasmodium falciparum, 48 h incubation
Experimental: as §1, §2

With `CCC1=C(C[C@H]2NCCc3cc(OC)c(OC)cc32)C[C@H]2c3cc(OC)c(OC)cc3CCN2C1` [(−)-R,S-dehydroemetine, (S)-2-((R)-6,7-dimethoxy-1,2,3,4-tetrahydro-isoquinolin-1-ylmethyl)-3-ethyl-9,10-dimethoxy-1,6,7,11b-tetrahydro-4H-pyrido[2,1-a]isoquinoline * dihydrobromide] as the compound, how does the IC50 [1] read?
The IC50 was 1.04 µM.

And the “% Parasitaemia” value ([2]; 25 nM, 24 hours)?
The value was 99.25%.

What about the “% Parasitaemia” value ([2]; 25 nM, 48 hours) of the same compound?
Its value is 95.85%.

What about the “% Parasitaemia” value ([2]; 25 nM, 72 hours) of the same compound?
Its value is 98.62%.

And the “% Parasitaemia” value ([2]; 50 nM, 24 hours)?
Its value is 93.88%.

What about the “% Parasitaemia” value ([2]; 50 nM, 48 hours) of the same compound?
Its value is 69.64%.

What about the “% Parasitaemia” value ([2]; 50 nM, 72 hours) of the same compound?
Its value is 89.44%.

And the “% Parasitaemia” value ([2]; 100 nM, 24 hours)?
Its value is 89.00%.

What about the “% Parasitaemia” value ([2]; 100 nM, 48 hours) of the same compound?
The value was 30.44%.

And the “% Parasitaemia” value ([2]; 100 nM, 72 hours)?
Its value is 17.06%.

And the “% Parasitaemia” value ([2]; 200 nM, 24 hours)?
The value was 77.03%.

And the “% Parasitaemia” value ([2]; 200 nM, 48 hours)?
The value was 22.37%.

And the “% Parasitaemia” value ([2]; 200 nM, 72 hours)?
Its value is 13.20%.

And the “% Parasitaemia” value ([2]; 400 nM, 24 hours)?
Its value is 72.09%.

What about the “% Parasitaemia” value ([2]; 400 nM, 48 hours) of the same compound?
Its value is 19.29%.

What about the “% Parasitaemia” value ([2]; 400 nM, 72 hours) of the same compound?
Its value is 11.63%.

What about the “24-h IC50” value [2] of the same compound?
Its value is “could not be reached within 24 h”.

And the “Time by which the IC50 was reached” value [2]?
Its value is no more than 48 h.

What about the “Parasitaemia (percentage) Rings” value ([3]; 8500 (nM per legend)) of the same compound?
Its value is 50.21%.

What about the “Parasitaemia (percentage) Trophozoites” value ([3]; 8500 (nM per legend)) of the same compound?
Its value is 19.75%.

And the IC50 [4]?
Its IC50 is 0.43 µM.

`CCC1=C(C[C@@H]2NCCc3cc(OC)c(OC)cc32)C[C@H]2c3cc(OC)c(OC)cc3CCN2C1` [(−)-S,S-dehydroisoemetine, (S)-2-((S)-6,7-dimethoxy-1,2,3,4-tetrahydro-isoquinolin-1-ylmethyl)-3-ethyl-9,10-dimethoxy-1,6,7,11b-tetrahydro-4H-pyrido[2,1-a]isoquinoline * dihydrobromide] was tested. Which IC50 [1] did it give?
Its IC50 is greater than 10 µM.

And the “% Parasitaemia” value ([2]; 0.63 μM, 24 hours)?
The value was 100.96%.

And the “% Parasitaemia” value ([2]; 0.63 μM, 48 hours)?
Its value is 83.33%.

And the “% Parasitaemia” value ([2]; 0.63 μM, 72 hours)?
The value was 102.96%.

What about the “% Parasitaemia” value ([2]; 1.25 μM, 24 hours) of the same compound?
Its value is 95.69%.

What about the “% Parasitaemia” value ([2]; 1.25 μM, 48 hours) of the same compound?
Its value is 69.00%.

And the “% Parasitaemia” value ([2]; 1.25 μM, 72 hours)?
Its value is 74.67%.

What about the “% Parasitaemia” value ([2]; 2.5 μM, 24 hours) of the same compound?
Its value is 100.62%.

What about the “% Parasitaemia” value ([2]; 2.5 μM, 48 hours) of the same compound?
The value was 45.41%.

What about the “% Parasitaemia” value ([2]; 2.5 μM, 72 hours) of the same compound?
The value was 31.88%.

And the “% Parasitaemia” value ([2]; 5 μM, 24 hours)?
Its value is 92.15%.

And the “% Parasitaemia” value ([2]; 5 μM, 48 hours)?
Its value is 30.49%.

And the “% Parasitaemia” value ([2]; 5 μM, 72 hours)?
The value was 22.99%.

What about the “% Parasitaemia” value ([2]; 10 μM, 24 hours) of the same compound?
The value was 79.97%.

And the “% Parasitaemia” value ([2]; 10 μM, 48 hours)?
The value was 24.20%.

What about the “% Parasitaemia” value ([2]; 10 μM, 72 hours) of the same compound?
The value was 13.33%.

And the “24-h IC50” value [2]?
Its value is “could not be reached within 24 h”.

What about the “Time by which the IC50 was reached” value [2] of the same compound?
Its value is no more than 48 h.

And the “Parasitaemia (percentage) Rings” value ([3]; 200 (μM per legend))?
The value was 70.98%.

What about the “Parasitaemia (percentage) Trophozoites” value ([3]; 200 (μM per legend)) of the same compound?
The value was 24.67%.

And the IC50 [4]?
Its IC50 is greater than 10 µM.
